Laboratory results as given in patent US12134604B1, “1-[4,5-bis(4-chlorophenyl)-1-hexyl-1H-imidazol-2-yl]-2-naphthol as an antimicrobial compound” (KING FAISAL UNIVERSITY, priority 2023, dated 2024).

Legend:
Type in all cases: cell-based
Conditions in all cases: after 10, 20, 40 and 60 minutes at all dilutions 1:100, 1:200, 1:400, 1:800 (summary in words)
Staphylococcus aureus = test: Antimicrobial screening by agar dilution, Staphylococcus aureus
Experimental: (§1) The antimicrobial properties of the 1-[4,5-bis(4-chlorophenyl)-1-hexyl-1H-imidazol-2-yl]-2-naphthol was studied by the method of agar dilution. Test solutions of each compound was prepared in concentration of 1% using dimethylformamide as a solvent then they are diluted in physiological solution to obtain the final experimental dilutions 1:100, 1:200, 1:400, 1:800. The effect of these substances are compared with furacillin in a controlled study. The testing microbes used were gram positive bacteria Staphylococcus aureus, gram negative bacteria Pseudomonas aeruginosa and Escherichia coli and Candida albicans fungi were taken. The experiments used for this survey were meat-pentonlu agar (EPA) for cultivation of bacteria and Saburo environment for fungi. Each experiment used 1 ml of test solution on each plate 500 min. Add 2 drops of emulsified with microbes feel. All experimental samples were taken from the agar after 10, 20, 40, 60 minutes in the environment on the basis of Patrk planted. Bacteria were cultivated at a temperature of 37° C. for 1 day and the mushroom was kept in a thermostat for […] at a temperature of 28° C. in the. Then results were checked.

Pseudomonas aeruginosa = test: Antimicrobial screening by agar dilution, Pseudomonas aeruginosa
Experimental: as §1

Candida albicans = test: Antimicrobial (antifungal) screening by agar dilution, Candida albicans
Experimental: as §1

Escherichia coli = test: Antimicrobial screening by agar dilution, Escherichia coli
Experimental: as §1

Measured: inhibition activity

CCCCCCn1c(-c2c(O)ccc3ccccc23)nc(-c2ccc(Cl)cc2)c1-c1ccc(Cl)cc1 [1-[4,5-bis(4-chlorophenyl)-1-hexyl-1H-imidazol-2-yl]-2-naphthol]
highest inhibition activity: all assays above
